The record followed here is US20210379153A1, “COMBINATION THERAPIES COMPRISING SIRP ALPHA-BASED CHIMERIC PROTEINS” (Shattuck Labs, Inc., priority 2018, published 2021).

The subject of data set [1] is cynomolgus macaque erythrocytes. Nature of the data set: In vitro hemolysis, cynomolgus macaque erythrocytes. The format is cell-based. The text has this: However, the in vitro systems used to test this question have significant limitations, including a complete lack of macrophages in the test system.
The test system of the next data set is tumors. Nature of the data set: In vivo tumor model, SIRPα-Fc-LIGHT with anti-PD-1 (Example 15). Conditions: combination with anti-PD-1 antibody. More on the design: species or system mice. As for the experimental part: The in vivo ability of combinations of the SIRPα-Fc-LIGHT chimeric protein with anti-PD-1 antibodies to target and treat tumors was determined. (FIG. 26A and FIG. 26B) FIG. 26C and FIG. 26D include data relevant to the graphs of FIG. 26A and FIG. 26B.

The subject of data set [2] is K562 (low EGFR-expressing CML cell line). The data set is described as follows: Macrophage engulfment of K562 cells. The format is cell-based, human.
The next data set has as its system CT26 tumors. The data set is described as follows: Syngeneic CT26 colon tumor model vs CD40 agonist and CD47 blocking antibodies (Example 11). The data set is classed as in vivo, mice. An excerpt: Mice were inoculated with CT26 tumors on day 0 and treated at a later starting date than FIG. 20A with mSIRPα-Fc-CD40L ARC on days 7, 9, and 11. […] In FIG. 20D and FIG. 20E, BALB/C mice were inoculated with WEHI3 tumors (FIG. 20D) or A20 tumors (FIG. 20E) subcutaneously on the rear flank, and then treated via IP injection with anti-CD20 or mSIRPα-Fc-CD40L on days 7, 9, and 11 (WEHI3) or days 10, 12, and 14 (A20); when tumors were established and reached approximately 57-60 mm^3. A cohort of mice were pre-treated with an interferon alpha receptor 1 (IFNAR1) blocking antibody ([…] by IP injection) on days −1, 1, and 10 (WEHI3) or on days −1, 1, and 13 (A20). […] Samples were normalized to untreated animals.
Implanted CT26 tumors were allowed to grow to […] before treatment was initiated with a fixed regimen of two doses of either a CD40 agonist antibody (clone FGK4.5), a CD47 blocking antibody (clone MIAP301), a combination of the two antibodies, or the murine SIRPα-Fc-CD40L chimeric protein.

For the next data set, the system named is Toledo lymphoma cells. Nature of the data set: Phagocytosis of Toledo lymphoma cells by human monocyte derived macrophages (flow cytometry). The format is cell-based. The following applies: combination with rituximab. The protocol:
FIG. 8D: Macrophage:Toledo lymphoma co-cultures were harvested 2 hours into phagocytosis assays in the presence of rituximab ([…]), SIRPα-Fc-CD40L ([…]), or the combination of both agents. Macrophages were isolated by CD11b+ FACS, RNA was prepared, cDNA synthesized, and gene expression (IFNa1, IFNb1, CD80, and CD86) assessed by qRT-PCR. Fold change was calculated using DDCT and values obtained from the housekeeping gene ACTB, and the corresponding values from untreated samples. […] After 2 hours, co-cultures were isolated from tissue culture vessels and were stained with a fluorescently conjugated CD11b antibody to discriminate macrophages. Cells were then assessed by flow cytometry for the co-localization of fluorescent signal from both cells types. Identical assays were set up where macrophages were pre-incubated for 1 hour with 20 μg/mL of a commercially available Fc block cocktail or with 20 μg/mL of a CD40 blocking antibody or with 5 μg/mL of a calreticulin blocking peptide. FIG. 8G: RAW 264.7-Lucia ISG cells were cultured with A20 lymphoma cells in the presence of […] of mSIRPα-Fc-CD40L, recombinant Fc-mCD40L, mSIRPα-Fc, or their combination, 1 mg/mL anti-mCD20, or the combination of mSIRPα-Fc-CD40L and anti-mCD20. After 24-hours type I interferon induced luminescence was assessed using a luminometer. The maximum luminescence (RLU) from each experiment was set to 1, and all other samples were normalized accordingly. Values from repeat experiments are shown.
In contrast, phagocytosis-stimulating activity of the combination was not impacted when macrophages were pre-treated with a CD40-blocking antibody (“CD40 Block”).
Background: In flow cytometry, cells or beads pass a laser one at a time.

For another data set, the system named is CT26 tumor. Nature of the data set: CT26 tumor model, order of administration with anti-CTLA-4 or anti-PD-1 (Example 10). The data set is classed as in vivo, mice.
Data set [3] relates to MCF7 (low Her2-expressing breast cancer cell line). The data set is described as follows: Macrophage engulfment of MCF7 cells. Conditions: monotherapy. The data set is classed as cell-based, human.
In a further data set the test system is parental CHOK1 cells. The data set is described as follows: Flow cytometry binding to parental CHOK1 cells. An excerpt: Scale is shown and yellow arrows correspond with each identified monomer. A schematic of the hexamer species is shown to the right, depicting dimerization of the Fc domain and trimerization of the CD40L domain. […] Recombinant hSIRPα-Fc, hCD40L-Fc, and hIgG1 were used as positive controls. […] In both panels, the CHOK1 Parental is on the left and the CHOK1/hCD47 is on the right. […] For both graphs, the CHOK1 Parental is on the bottom. […] In this figure, the control is the top curve, the SIRPα-Fc-CD40L is the middle curve, and the anti-CD47 is the bottom curve.
The extracellular domain (ECD) of SIRPα and the ECD of CD40L were fused via an antibody Fc domain to generate SIRPαECD-Fc-CD40LECD chimeric proteins. When human proteins were used, the chimeric protein is referred to as hSIRPα-Fc-CD40L; when murine proteins were used, the chimeric protein is referred to as and mSIRPα-Fc-CD40L. […] The purified protein was then analyzed for the presence of each individual domain by Western blotting using anti-SIRPα, anti-Fc, and anti-CD40L antibodies (FIG. 3A, bottom). […] Next, binding affinities for SIRPα-Fc-CD40L to recombinant CD47, CD40, or Fc receptors were evaluated by surface plasmon resonance (SPR). […] A functional ELISA evaluated whether SIRPα-Fc-CD40L could outcompete a commercially available single-sided SIRPα-Fc control for binding to recombinant CD47 (FIG. 3H).

Data set [4] deals with A431 (high EGFR-expressing skin cancer cell line). The data set is described as follows: Macrophage engulfment of A431 cells. Conditions: combination with anti-EGFR antibody (cetuximab); vs low EGFR-expressing tumor cells. The format is cell-based, human.

“SIRPα-Fc-CD40L: generic name of the SIRPαECD-Fc-CD40LECD chimeric protein; human or murine version according to the experiment”: the hemolysis entry in data set [1] is given as “did not reveal evidence of hemolysis”. Moreover, the “rejection of primary tumor” value with tumors was “able to reject primary tumor”. For the same substance, the phagocytic activity entry in [2] (combination with cetuximab) and in data set [2] (monotherapy) was “no phagocytic activity” in each case. The “proportion of AH1-tetramer positive CD8+ T cells in tumor and spleen” value with CT26 tumors (13 days following tumor inoculation) was “increase in the proportion”. The “therapeutic benefit with CD4 depletion” value with CT26 tumors (antibody-mediated depletion of CD4+ cells) is recorded as “partially required”. For the same substance, the “therapeutic benefit with CD8 depletion” value in the data set with CT26 tumors (antibody-mediated depletion of CD8+ cells) is on record as “completely eliminated the therapeutic benefit”. Also, the phagocytosis-stimulating activity entry is recorded as “unable to reduce” with Toledo lymphoma cells (CALR Block (calreticulin blocking peptide)); “not impacted” in the data set on Toledo lymphoma cells (CD40 Block); “partially inhibited” in the data set on Toledo lymphoma cells (Fc Block); “greatly reduced” in the data set with Toledo lymphoma cells (calreticulin blocking peptide and Fc receptor block together). The “treatment outcome (tumor size, survival)” value with CT26 tumor (anti-CTLA-4 antibody administered before the chimeric protein) and with CT26 tumor (anti-PD-1 antibody administered with the chimeric protein) was “greatest treatment outcome” throughout. Besides, the “treatment outcome / tumor control” value in the data set on CT26 tumor (chimeric protein administered before or after the anti-PD-1 antibody) and with CT26 tumor (chimeric protein administered before the anti-CTLA-4 antibody) was “less great treatment outcome” each time. Further, the phagocytosis result in [3] was “demonstrated monotherapy activity”. Also, the binding entry in the data set with parental CHOK1 cells is reported as “not to parental CHOK1 cells”. The “macrophage engulfment of tumor cells” value in data set [4] is “more effective”.
